# Results as given in ChEMBL document CHEMBL1201862, “PubChem BioAssay data set” (2004).
#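 96-well plates; 48 h exposure; 5 concentrations. Endpoints by linear interpolation between flanking doses. Not reached: highest tested concentration assigned. At the GI50, growth is halved.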 The source made the active and inactive calls. Cut-off read from the data, not from the text of the source: active = GI50 up to about 1.1 µM and inactive = higher.
# How the values were obtained:
# Experiment in all cases: NCI tumour cell line growth inhibition, 48 h
# BT-549 = system: BT-549
# RPMI-8226 = system: RPMI-8226
# HCT-116 = system: HCT-116
# IGROV-1 = system: IGROV-1
# SF-295 = system: SF-295
# HOP-62 = system: HOP-62
# A498 = system: A498
# UACC-62 = system: UACC-62
# U-251 = system: U-251
# NCI-H23 = system: NCI-H23
# K562 = system: K562
# SNB-19 = system: SNB-19
# SN12C = system: SN12C
# MDA-MB-231 = system: MDA-MB-231
# HOP-92 = system: HOP-92
# EKVX = system: EKVX
# Malme-3M = system: Malme-3M
# SF-539 = system: SF-539
# SF-268 = system: SF-268
# 786-0 = system: 786-0
# RXF 393 = system: RXF 393
# LOX IMVI = system: LOX IMVI
# OVCAR-4 = system: OVCAR-4
# UO-31 = system: UO-31
# HT-29 = system: HT-29
# SK-MEL-28 = system: SK-MEL-28
# SK-MEL-2 = system: SK-MEL-2
# MCF7 = system: MCF7
# M14 = system: M14
# DU-145 = system: DU-145
# PC-3 = system: PC-3
# MDA-N = system: MDA-N
# CCRF-CEM = system: CCRF-CEM
# CAKI-1 = system: CAKI-1
# MOLT-4 = system: MOLT-4
# NCI-H226 = system: NCI-H226
# OVCAR-8 = system: OVCAR-8
# SK-MEL-5 = system: SK-MEL-5
# OVCAR-5 = system: OVCAR-5
# SW-620 = system: SW-620
# KM12 = system: KM12
# NCI-H460 = system: NCI-H460
# NCI/ADR-RES = system: NCI/ADR-RES
# MDA-MB-435 = system: MDA-MB-435
# NCI-H522 = system: NCI-H522
# T47D = system: T47D
# HCT-15 = system: HCT-15
# UACC-257 = system: UACC-257
# A549 = system: A549
# ACHN = system: ACHN
# COLO 205 = system: COLO 205
# SR = system: SR
# TK-10 = system: TK-10
# HCC 2998 = system: HCC 2998
# OVCAR-3 = system: OVCAR-3
# SK-OV-3 = system: SK-OV-3
# HL-60 = system: HL-60
# SNB-75 = system: SNB-75
# Hs-578T = system: Hs-578T
compound,measurement,setting,value
CC(C)CCC[C@@H](C)[C@H]1CC[C@H]2C3=C[C@H](OS(=O)(=O)O)[C@@]4(O)C[C@@H](O)CC[C@]4(C)[C@@]3(O)CC[C@]12C,GI50,BT-549,> 100 µM (inactive)
same,GI50,RPMI-8226,> 100 µM (inactive)
same,GI50,HCT-116,98.9 µM (inactive)
same,GI50,IGROV-1,> 100 µM (inactive)
same,GI50,SF-295,> 100 µM (inactive)
same,GI50,HOP-62,> 100 µM (inactive)
same,GI50,A498,> 100 µM (inactive)
same,GI50,UACC-62,> 100 µM (inactive)
same,GI50,U-251,> 100 µM (inactive)
same,GI50,NCI-H23,> 100 µM (inactive)
same,GI50,K562,45.6 µM (inactive)
same,GI50,SNB-19,> 100 µM (inactive)
same,GI50,SN12C,> 100 µM (inactive)
same,GI50,MDA-MB-231,> 100 µM (inactive)
same,GI50,HOP-92,> 100 µM (inactive)
same,GI50,EKVX,> 100 µM (inactive)
same,GI50,Malme-3M,> 100 µM (inactive)
same,GI50,SF-539,> 100 µM (inactive)
same,GI50,SF-268,> 100 µM (inactive)
same,GI50,786-0,> 100 µM (inactive)
same,GI50,RXF 393,> 100 µM (inactive)
same,GI50,LOX IMVI,> 100 µM (inactive)
same,GI50,OVCAR-4,> 100 µM (inactive)
same,GI50,UO-31,> 100 µM (inactive)
same,GI50,HT-29,42 µM (inactive)
same,GI50,SK-MEL-28,> 100 µM (inactive)
same,GI50,SK-MEL-2,> 100 µM (inactive)
same,GI50,MCF7,> 100 µM (inactive)
same,GI50,M14,> 100 µM (inactive)
same,GI50,DU-145,> 100 µM (inactive)
same,GI50,PC-3,> 100 µM (inactive)
same,GI50,MDA-N,> 100 µM (inactive)
same,GI50,CCRF-CEM,49.2 µM (inactive)
same,GI50,CAKI-1,> 100 µM (inactive)
same,GI50,MOLT-4,42.7 µM (inactive)
same,GI50,NCI-H226,60 µM (inactive)
same,GI50,OVCAR-8,> 100 µM (inactive)
same,GI50,SK-MEL-5,> 100 µM (inactive)
same,GI50,OVCAR-5,> 100 µM (inactive)
same,GI50,SW-620,> 100 µM (inactive)
same,GI50,KM12,84.5 µM (inactive)
same,GI50,NCI-H460,> 100 µM (inactive)
same,GI50,NCI/ADR-RES,> 100 µM (inactive)
same,GI50,MDA-MB-435,> 100 µM (inactive)
same,GI50,NCI-H522,> 100 µM (inactive)
same,GI50,T47D,83.6 µM (inactive)
same,GI50,HCT-15,> 100 µM
same,GI50,UACC-257,> 100 µM (inactive)
same,GI50,A549,> 100 µM (inactive)
same,GI50,ACHN,> 100 µM (inactive)
same,GI50,COLO 205,> 100 µM (inactive)
same,GI50,SR,68.5 µM (inactive)
same,GI50,TK-10,> 100 µM (inactive)
same,GI50,HCC 2998,> 100 µM (inactive)
same,GI50,OVCAR-3,> 100 µM (inactive)
same,GI50,SK-OV-3,> 100 µM (inactive)
COC(=O)C1C(=O)CC(C)(O)C(C(=O)OC)C1c1ccc(N(C)C)cc1 (centres undefined),GI50,BT-549,> 100 µM (inactive)
same,GI50,HCT-116,8.67 µM (inactive)
same,GI50,IGROV-1,> 100 µM (inactive)
same,GI50,SF-295,> 100 µM (inactive)
same,GI50,HOP-62,> 100 µM (inactive)
same,GI50,A498,> 100 µM (inactive)
same,GI50,UACC-62,> 100 µM (inactive)
same,GI50,U-251,> 100 µM (inactive)
same,GI50,NCI-H23,> 100 µM (inactive)
same,GI50,K562,> 100 µM (inactive)
same,GI50,SNB-19,> 100 µM (inactive)
same,GI50,SN12C,> 100 µM (inactive)
same,GI50,MDA-MB-231,> 100 µM (inactive)
same,GI50,HOP-92,> 100 µM (inactive)
same,GI50,EKVX,> 100 µM (inactive)
same,GI50,Malme-3M,> 100 µM (inactive)
same,GI50,SF-268,> 100 µM (inactive)
same,GI50,786-0,12 µM (inactive)
same,GI50,RXF 393,> 100 µM (inactive)
same,GI50,LOX IMVI,11.6 µM (inactive)
same,GI50,OVCAR-4,> 100 µM (inactive)
same,GI50,UO-31,> 100 µM (inactive)
same,GI50,HT-29,> 100 µM (inactive)
same,GI50,SK-MEL-28,> 100 µM (inactive)
same,GI50,SK-MEL-2,> 100 µM (inactive)
same,GI50,MCF7,> 100 µM (inactive)
same,GI50,DU-145,> 100 µM (inactive)
same,GI50,PC-3,> 100 µM (inactive)
same,GI50,HL-60,> 100 µM (inactive)
same,GI50,MDA-N,> 100 µM (inactive)
same,GI50,CCRF-CEM,> 100 µM (inactive)
same,GI50,CAKI-1,> 100 µM (inactive)
same,GI50,MOLT-4,> 100 µM (inactive)
same,GI50,NCI-H226,> 100 µM (inactive)
same,GI50,OVCAR-8,> 100 µM (inactive)
same,GI50,SK-MEL-5,> 100 µM (inactive)
same,GI50,SNB-75,> 100 µM (inactive)
same,GI50,OVCAR-5,> 100 µM (inactive)
same,GI50,SW-620,> 100 µM (inactive)
same,GI50,KM12,> 100 µM (inactive)
same,GI50,NCI-H460,> 100 µM (inactive)
same,GI50,NCI/ADR-RES,> 100 µM (inactive)
same,GI50,MDA-MB-435,> 100 µM (inactive)
same,GI50,NCI-H522,> 100 µM (inactive)
same,GI50,T47D,> 100 µM (inactive)
same,GI50,HCT-15,> 100 µM
same,GI50,UACC-257,> 100 µM (inactive)
same,GI50,A549,> 100 µM (inactive)
same,GI50,ACHN,> 100 µM (inactive)
same,GI50,COLO 205,> 100 µM (inactive)
same,GI50,SR,> 100 µM (inactive)
same,GI50,TK-10,> 100 µM (inactive)
same,GI50,HCC 2998,> 100 µM (inactive)
same,GI50,OVCAR-3,> 100 µM (inactive)
COc1cc2c3c(n(CCCNCCO)c(=O)c2cc1OC)-c1cc2c(cc1C3=O)OCO2,GI50,BT-549,0.935 µM (active)
same,GI50,IGROV-1,0.0935 µM (active)
same,GI50,SF-295,< 0.01 µM (active)
same,GI50,A498,0.378 µM (active)
same,GI50,UACC-62,0.0236 µM (active)
same,GI50,NCI-H23,< 0.01 µM (active)
same,GI50,SNB-19,0.012 µM (active)
same,GI50,SN12C,< 0.01 µM (active)
same,GI50,MDA-MB-231,0.537 µM (active)
same,GI50,SF-539,0.0381 µM (active)
same,GI50,SF-268,< 0.0338 µM (active)
same,GI50,786-0,< 0.01 µM (active)
same,GI50,LOX IMVI,< 0.01 µM (active)
same,GI50,HT-29,< 0.0311 µM (active)
same,GI50,MCF7,< 0.01 µM (active)
same,GI50,M14,0.0422 µM (active)
same,GI50,DU-145,< 0.01 µM (active)
same,GI50,PC-3,1.02 µM (active)
same,GI50,HL-60,< 0.0465 µM (active)
same,GI50,MDA-N,0.611 µM (active)
same,GI50,CCRF-CEM,< 0.01 µM (active)
same,GI50,MOLT-4,< 0.01 µM (active)
same,GI50,NCI-H226,0.206 µM (active)
same,GI50,OVCAR-8,0.158 µM (active)
same,GI50,SK-MEL-5,0.19 µM (active)
same,GI50,OVCAR-5,0.384 µM (active)
same,GI50,SW-620,0.16 µM (active)
same,GI50,KM12,0.541 µM (active)
same,GI50,NCI-H460,< 0.01 µM (active)
same,GI50,NCI/ADR-RES,0.546 µM (active)
same,GI50,NCI-H522,< 0.038 µM (active)
same,GI50,T47D,0.0165 µM (active)
same,GI50,ACHN,< 0.01 µM (active)
same,GI50,COLO 205,0.392 µM (active)
same,GI50,SR,< 0.01 µM (active)
same,GI50,TK-10,1.38 µM (inactive)
same,GI50,HCC 2998,0.536 µM (active)
same,GI50,OVCAR-3,0.813 µM (active)
same,GI50,Hs-578T,1.71 µM (inactive)
